Tests used:
[1] = pH of an aqueous solution of the compound (pH meter); format: physicochemical; conditions: for pH: sample solution of Table 13 (0.2 M H2O2 and/or citrate)
[2] = test system: Botrytis cinerea; conditions: samples at equivalent concentrations (0.2 M)
[3] = other compound containing hydrogen peroxide, dissolved; cited from earlier work

Row | Molecule | pH [1] | MIC Botrytis [2] | pH obtained by dissolving [3] | pH of an aqueous solution ([1]; diluted 20× in water)
1 | O.O.O.O=C([O-])CC(O)(CC(=O)[O-])C(=O)O.O=C([O-])CC(O)(CC(=O)[O-])C(=O)O.[Na+].[Na+].[Na+].[Na+] [Disodium citrate sesquihydrate] | 4.9 | non actif | – | –
2 | O=C([O-])[O-].O=C([O-])[O-].OO.OO.OO.[Na+].[Na+].[Na+].[Na+] [sodium percarbonate] | – | – | 11 | –
3 | O=C(O)CC(O)(CC(=O)O)C(=O)O [Acide citrique, Citric acid] | – | non actif | – | –
4 | OO [Hydrogen peroxide] | 6.4 | non actif | – | –
5 | anhydrous disodium citrate monoperhydrate [disodium citrate perhydrate] | – | 108 mM | – | –
6 | O.O.O=C([O-])CC(O)(CC(=O)[O-])C(=O)[O-].OO.[Na+].[Na+].[Na+] [trisodium citrate monoperhydrate dihydrate] | 8.2 | 72 mM | – | 7.6 (±0.3)
